In patent US5604234A, “Substituted thiol macrolactam immunomodulators” (Abbott Laboratories, priority 1995, dated 1997):
pIC50: −log10 of the molar value.

System: human mixed lymphocyte reaction (MLR)
Assay: human mixed lymphocyte reaction (MLR), serum free variation
Type: cell-based
Details: Homo sapiens, Lymphocyte, serum-free medium AIM V, Table 3
Description: In vitro Assay of Biological Activity (Serum Free MLR)
The in viitro immunosuppressant activity of the compounds of the present invention can also be determined using a variation of the human mixed lymphocyte reaction (MLR) assay described by Kino, T. et al. in Transplantation Proceedings, XIX(5):36-39, Suppl. 6 (1987). In this assay, the cell culture was performed in a serum-free medium, AIM V (GibcoBRL Life Technologies, Grand Island, N.Y.), instead of the usual RPMI 1640 plus 10% heat-inactivated fetal bovine serum medium. The final cell concentrations of the responder and stimulator peripheral blood mononuclear cells were, respectively, 5×10^5/mL and 2×10^6/mL of cells pooled from four donors.

In order of rising pIC50:
1. CC[C@@H]1/C=C(\C)C[C@H](C)C[C@H](OC)[C@H]2O[C@@](O)(C(=O)C(=O)N3CCCC[C@H]3C(=O)O[C@H](/C(C)=C/[C@@H]3CC[C@H](SCC(C)=NO)[C@H](OC)C3)[C@H](C)[C@@H](O)CC1=O)[C@H](C)C[C@@H]2OC [Example 83A]  7.15
2. CC[C@@H]1/C=C(\C)C[C@H](C)C[C@H](OC)[C@H]2O[C@@](O)(C(=O)C(=O)N3CCCC[C@H]3C(=O)O[C@H](/C(C)=C/[C@@H]3CC[C@H](SCC(C)=NOC)[C@H](OC)C3)[C@H](C)[C@@H](O)CC1=O)[C@H](C)C[C@@H]2OC [Example 82]  7.19
3. CCC1C=C(C)CC(C)CC(OC)C2OC(O)(C(=O)C(=O)N3CCCCC3C(=O)OC(C(C)=CC3CCC(SCC(C)C(=O)OCc4ccccc4)C(OC)C3)C(C)C(O)CC1=O)C(C)CC2OC (stereo not drawn) [Example 42]  7.20
4. CCOC(=O)C(C)CSC1CCC(C=C(C)C2OC(=O)C3CCCCN3C(=O)C(=O)C3(O)OC(C(OC)CC(C)CC(C)=CC(CC)C(=O)CC(O)C2C)C(OC)CC3C)CC1OC (stereo not drawn) [Example 41]  7.33
5. CC[C@@H]1/C=C(\C)C[C@H](C)C[C@H](OC)[C@H]2O[C@@](O)(C(=O)C(=O)N3CCCC[C@H]3C(=O)O[C@H](/C(C)=C/[C@@H]3CC[C@H](S(=O)(=O)CCC(=O)O)[C@H](OC)C3)[C@H](C)[C@@H](O)CC1=O)[C@H](C)C[C@@H]2OC [Example 78]  7.52
6. CC[C@@H]1/C=C(\C)C[C@H](C)C[C@H](OC)[C@H]2O[C@@](O)(C(=O)C(=O)N3CCCC[C@H]3C(=O)O[C@H](/C(C)=C/[C@@H]3CC[C@H](SCC(C)C(=O)O)[C@H](OC)C3)[C@H](C)[C@@H](O)CC1=O)[C@H](C)C[C@@H]2OC (stereo partly drawn) [Example 43]  7.65
7. CC[C@@H]1/C=C(\C)C[C@H](C)C[C@H](OC)[C@H]2O[C@@](O)(C(=O)C(=O)N3CCCC[C@H]3C(=O)O[C@H](/C(C)=C/[C@@H]3CC[C@H]([S+]([O-])CC(=O)O)[C@H](OC)C3)[C@H](C)[C@@H](O)CC1=O)[C@H](C)C[C@@H]2OC (single isomer, unassigned) [Example 73]  8.02
8. CCC1C=C(C)CC(C)CC(OC)C2OC(O)(C(=O)C(=O)N3CCCCC3C(=O)OC(C(C)=CC3CCC(SCCC(=O)OC)C(OC)C3)C(C)C(O)CC1=O)C(C)CC2OC (stereo not drawn) [Example 9]  8.05
9. CCOC(=O)CSC1CCC(C=C(C)C2OC(=O)C3CCCCN3C(=O)C(=O)C3(O)OC(C(OC)CC(C)CC(C)=CC(CC)C(=O)CC(O)C2C)C(OC)CC3C)CC1OC (stereo not drawn) [Example 31]  8.09
10. CCC1C=C(C)CC(C)CC(OC)C2OC(O)(C(=O)C(=O)N3CCCCC3C(=O)OC(C(C)=CC3CCC(SCC(=O)OC(C)C)C(OC)C3)C(C)C(O)CC1=O)C(C)CC2OC (stereo not drawn) [Example 32]  8.19
11. CCOC(=O)CCSC1CCC(C=C(C)C2OC(=O)C3CCCCN3C(=O)C(=O)C3(O)OC(C(OC)CC(C)CC(C)=CC(CC)C(=O)CC(O)C2C)C(OC)CC3C)CC1OC (stereo not drawn) [Example 10]  8.49
12. CCC1C=C(C)CC(C)CC(OC)C2OC(O)(C(=O)C(=O)N3CCCCC3C(=O)OC(C(C)=CC3CCC(SCCC(=O)OCCOC)C(OC)C3)C(C)C(O)CC1=O)C(C)CC2OC (stereo not drawn) [Example 11]  8.68
13. CC[C@@H]1/C=C(\C)C[C@H](C)C[C@H](OC)[C@H]2O[C@@](O)(C(=O)C(=O)N3CCCC[C@H]3C(=O)O[C@H](/C(C)=C/[C@@H]3CC[C@H](SC(=O)[C@@H](C)O)[C@H](OC)C3)[C@H](C)[C@@H](O)CC1=O)[C@H](C)C[C@@H]2OC [Example 124]  8.70
14. CC[C@@H]1/C=C(\C)C[C@H](C)C[C@H](OC)[C@H]2O[C@@](O)(C(=O)C(=O)N3CCCC[C@H]3C(=O)O[C@H](/C(C)=C/[C@@H]3CC[C@H](SC(=O)NCC(=O)N4CCCCC4)[C@H](OC)C3)[C@H](C)[C@@H](O)CC1=O)[C@H](C)C[C@@H]2OC [Example 102]  8.70
15. CC[C@@H]1/C=C(\C)C[C@H](C)C[C@H](OC)[C@H]2O[C@@](O)(C(=O)C(=O)N3CCCC[C@H]3C(=O)O[C@H](/C(C)=C/[C@@H]3CC[C@H](SC(=O)Nc4ccccc4)[C@H](OC)C3)[C@H](C)[C@@H](O)CC1=O)[C@H](C)C[C@@H]2OC [Example 94]  8.72
16. CCC1C=C(C)CC(C)CC(OC)C2OC(O)(C(=O)C(=O)N3CCCCC3C(=O)OC(C(C)=CC3CCC(SCCC(=O)Oc4ccccc4)C(OC)C3)C(C)C(O)CC1=O)C(C)CC2OC (stereo not drawn) [Example 8]  8.74
17. CCC1C=C(C)CC(C)CC(OC)C2OC(O)(C(=O)C(=O)N3CCCCC3C(=O)OC(C(C)=CC3CCC(SCC(=O)OC(C)(C)C)C(OC)C3)C(C)C(O)CC1=O)C(C)CC2OC (stereo not drawn) [Example 29]  8.74
18. CC[C@@H]1/C=C(\C)C[C@H](C)C[C@H](OC)[C@H]2O[C@@](O)(C(=O)C(=O)N3CCCC[C@H]3C(=O)O[C@H](/C(C)=C/[C@@H]3CC[C@H](SC(=O)C(C)C)[C@H](OC)C3)[C@H](C)[C@@H](O)CC1=O)[C@H](C)C[C@@H]2OC [Example 86]  8.77
19. CC[C@@H]1/C=C(\C)C[C@H](C)C[C@H](OC)[C@H]2O[C@@](O)(C(=O)C(=O)N3CCCC[C@H]3C(=O)O[C@H](/C(C)=C/[C@@H]3CC[C@H](SC(=O)[C@@H](NC(C)=O)[C@@H](C)O)[C@H](OC)C3)[C@H](C)[C@@H](O)CC1=O)[C@H](C)C[C@@H]2OC [Example 122]  8.82
20. CC[C@@H]1/C=C(\C)C[C@H](C)C[C@H](OC)[C@H]2O[C@@](O)(C(=O)C(=O)N3CCCC[C@H]3C(=O)O[C@H](/C(C)=C/[C@@H]3CC[C@H](SCC(C)=NNC(N)=O)[C@H](OC)C3)[C@H](C)[C@@H](O)CC1=O)[C@H](C)C[C@@H]2OC [Example 81A]  8.89
21. CC[C@@H]1/C=C(\C)C[C@H](C)C[C@H](OC)[C@H]2O[C@@](O)(C(=O)C(=O)N3CCCC[C@H]3C(=O)O[C@H](/C(C)=C/[C@@H]3CC[C@H](SC(=O)NCC(=O)N4CCOCC4)[C@H](OC)C3)[C@H](C)[C@@H](O)CC1=O)[C@H](C)C[C@@H]2OC [Example 101]  8.96
22. CC[C@@H]1/C=C(\C)C[C@H](C)C[C@H](OC)[C@H]2O[C@@](O)(C(=O)C(=O)N3CCCC[C@H]3C(=O)O[C@H](/C(C)=C/[C@@H]3CC[C@H](SC(=O)N(CC)CC)[C@H](OC)C3)[C@H](C)[C@@H](O)CC1=O)[C@H](C)C[C@@H]2OC [Example 97]  9.30
23. CC[C@@H]1/C=C(\C)C[C@H](C)C[C@H](OC)[C@H]2O[C@@](O)(C(=O)C(=O)N3CCCC[C@H]3C(=O)O[C@H](/C(C)=C/[C@@H]3CC[C@H](SC(=O)C(C)(C)C)[C@H](OC)C3)[C@H](C)[C@@H](O)CC1=O)[C@H](C)C[C@@H]2OC [Example 85]  9.32
24. CC[C@@H]1/C=C(\C)C[C@H](C)C[C@H](OC)[C@H]2O[C@@](O)(C(=O)C(=O)N3CCCC[C@H]3C(=O)O[C@H](/C(C)=C/[C@@H]3CC[C@H](SC(=O)N4CCOCC4)[C@H](OC)C3)[C@H](C)[C@@H](O)CC1=O)[C@H](C)C[C@@H]2OC [Example 98]  9.70
25. CCC1C=C(C)CC(C)CC(OC)C2OC(O)(C(=O)C(=O)N3CCCCC3C(=O)OC(C(C)=CC3CCC(SCCC(=O)N(C)O)C(OC)C3)C(C)C(O)CC1=O)C(C)CC2OC (stereo not drawn) [Example 25]  9.70
26. CCC1C=C(C)CC(C)CC(OC)C2OC(O)(C(=O)C(=O)N3CCCCC3C(=O)OC(C(C)=CC3CCC(SC(C)=O)C(OC)C3)C(C)C(O)CC1=O)C(C)CC2OC (stereo not drawn) [Example 2]  9.80

Same assay, conditions: serum-free medium AIM V, Table 3

For CC[C@@H]1/C=C(\C)C[C@H](C)C[C@H](OC)[C@H]2O[C@@](O)(C(=O)C(=O)N3CCCC[C@H]3C(=O)O[C@H](/C(C)=C/[C@@H]3CC[C@H](SCC(C)=NO)[C@H](OC)C3)[C@H](C)[C@@H](O)CC1=O)[C@H](C)C[C@@H]2OC [Example 83B], the pIC50 was 7.17.
